Key:
Type in all cases: cell-based
[1] = target: AXL (Homo sapiens (Human), UniProt P30530); test: AXL autophosphorylation ELISA in A-172 cells; conditions: cellular, Gas6-stimulated, phospho-AXL ELISA
Description: A-172 glioblastoma cells (ATCC #CRL-1620) were seeded at 2.5×10^5 cells/well onto 24-well plates (Greiner #662165), in […] (Thermo Fisher #11995-040) containing 10% FBS (Thermo Fisher #26140-079), […] (Thermo Fisher #11140-050), […] (Thermo Fisher #35050-061), and 1% Penicillin Streptomycin (Thermo Fisher #15140-122). A-172 cells were incubated at 37° C., […] for 24 hand then starved for 24 h in serum-free medium. Test compounds were serially diluted to produce an 8-point dose curve in fresh serum-free medium to a final concentration of 0.3% DMSO (vehicle) and added to the cells and incubated for 1 h. Cells were then stimulated with 1 μg/mL recombinant human Gas6 (R&D Systems #885-GSB-500) for 15 min, washed with cold PBS, and immediately lysed with 150 μL of cold 1× lysis buffer [20 mM Tris, 137 mM sodium chloride, 2 mM EDTA, 10% glycerol, 1% NP-40 alternative, 1 mM activated sodium orthovanadate, 1 mM PefaBloc SC (Sigma-Aldrich #11429868001), protease/phosphatase inhibitor tablet (Thermo Fisher #A32959)]. Lysates were collected and 100 μL/well added into the human phospho-AXL DuoSet IC ELISA (R&D Systems #DYC2228-2). Assay was performed according to manufacturer's instructions and sample phospho-AXL concentrations were extrapolated using human phospho-AXL control (R&D Systems #841645) as a standard. Positive control wells (100% activity) contained Gas6-stimulated, DMSO-treated cell lysates. Negative control wells (0% activity) contained Gas6-stimulated, reference inhibitor-treated cell lysates. IC50 values were calculated by nonlinear regression analysis using a 4-parameter logistic curve fit in ActivityBase XE (IDBS).

[2] = target: Met (Homo sapiens (Human), UniProt P08581); test: Met autophosphorylation ELISA in PC-3 cells; conditions: cellular, HGF-stimulated, phospho-Met ELISA, read-out: c-Met IC50
Description: PC-3 prostate cancer cells (ATCC #CRL-1435) were seeded at 4×10^4 cells/well onto 24-well plates (Greiner #662165), in DMEM (Thermo Fisher #11995-040) containing 10% FBS (Thermo Fisher #26140-079), 1% MEM NEAA (Thermo Fisher #11140-050), 1% GlutaMax (Thermo Fisher #35050-061), and 1% Penicillin Streptomycin (Thermo Fisher #15140-122). PC-3 cells were incubated at 37° C., 5% CO2 for 24 h and then starved for 3 h in serum-free medium. Test compounds were serially diluted to produce an 8-point dose curve in fresh serum-free medium to a final concentration of 0.3% DMSO (vehicle) and added to the cells and incubated for 1 h. Cells were then stimulated with 100 ng/mL recombinant human HGF (R&D Systems #294-HG-250) for 10 min, washed with cold PBS, and immediately lysed with 130 μL of cold 1× lysis buffer [20 mM Tris, 137 mM sodium chloride, 2 mM EDTA, 10% glycerol, 1% NP-40 alternative, 1 mM activated sodium orthovanadate, 1 mM PefaBloc SC (Sigma-Aldrich #11429868001), and protease/phosphatase inhibitor tablet (Thermo Fisher #A32959)]. Lysates were clarified by centrifugation and 100 μL/well added into the PathScan phospho-Met (panTyr) Sandwich ELISA (Cell Signaling Technology #7333). Assay was performed according to manufacturer's instructions. Positive control wells (100% activity) contained HGF-stimulated, DMSO-treated cell lysates. Negative control wells (0% activity) contained HGF-stimulated, reference inhibitor-treated cell lysates. IC50 values were calculated by nonlinear regression analysis using a 4-parameter logistic curve fit in ActivityBase XE (IDBS).

[3] = target: KDR (Homo sapiens (Human), UniProt P35968); test: KDR autophosphorylation ELISA in HUVEC cells; conditions: cellular, VEGF165-stimulated, phospho-KDR ELISA
Description: Human umbilical vein endothelial cells or HUVEC (Lonza #C2519A) were seeded at 2×10^4 cells/well onto 96-well plates (Corning #3904), in EGM-2 growth medium (Lonza #CC-3162) containing 1% Penicillin Streptomycin (Thermo Fisher #15140-122). HUVEC cells were incubated at 37° C., 5% CO2 for 24 h and then starved for 24 h in serum-free EBM-2 basal medium (Lonza #CC-3156) containing 1% Penicillin Streptomycin. Test compounds were serially diluted to produce an 8-point dose curve in fresh serum-free medium to a final concentration of 0.3% DMSO (vehicle) and added to the cells and incubated for 1 h. Cells were then stimulated with 100 ng/mL recombinant human VEGF165 (R&D Systems #293-VE-500) for 5 min, washed with cold PBS, and immediately lysed with 130 μL of cold 1× lysis buffer [20 mM Tris, 137 mM sodium chloride, 2 mM EDTA, 10% glycerol, 1% NP-40 alternative, 1 mM activated sodium orthovanadate, 1 mM PefaBloc SC (Sigma-Aldrich #11429868001), protease/phosphatase inhibitor tablet (Thermo Fisher #A32959)]. Lysates were collected and 100 μL/well added into the human phospho-KDR DuoSet IC ELISA (R&D Systems #DYC1766-2). Assay was performed according to manufacturer's instructions and sample phospho-KDR concentrations were extrapolated using human phospho-KDR control (R&D Systems #841421) as a standard. Positive control wells (100% activity) contained VEGF165-stimulated, DMSO-treated cell lysates. Negative control wells (0% activity) contained non-stimulated cell lysates. IC50 values were calculated by nonlinear regression analysis using a 4-parameter logistic curve fit in ActivityBase XE (IDBS).

Chain of KDR (P35968 20-1356): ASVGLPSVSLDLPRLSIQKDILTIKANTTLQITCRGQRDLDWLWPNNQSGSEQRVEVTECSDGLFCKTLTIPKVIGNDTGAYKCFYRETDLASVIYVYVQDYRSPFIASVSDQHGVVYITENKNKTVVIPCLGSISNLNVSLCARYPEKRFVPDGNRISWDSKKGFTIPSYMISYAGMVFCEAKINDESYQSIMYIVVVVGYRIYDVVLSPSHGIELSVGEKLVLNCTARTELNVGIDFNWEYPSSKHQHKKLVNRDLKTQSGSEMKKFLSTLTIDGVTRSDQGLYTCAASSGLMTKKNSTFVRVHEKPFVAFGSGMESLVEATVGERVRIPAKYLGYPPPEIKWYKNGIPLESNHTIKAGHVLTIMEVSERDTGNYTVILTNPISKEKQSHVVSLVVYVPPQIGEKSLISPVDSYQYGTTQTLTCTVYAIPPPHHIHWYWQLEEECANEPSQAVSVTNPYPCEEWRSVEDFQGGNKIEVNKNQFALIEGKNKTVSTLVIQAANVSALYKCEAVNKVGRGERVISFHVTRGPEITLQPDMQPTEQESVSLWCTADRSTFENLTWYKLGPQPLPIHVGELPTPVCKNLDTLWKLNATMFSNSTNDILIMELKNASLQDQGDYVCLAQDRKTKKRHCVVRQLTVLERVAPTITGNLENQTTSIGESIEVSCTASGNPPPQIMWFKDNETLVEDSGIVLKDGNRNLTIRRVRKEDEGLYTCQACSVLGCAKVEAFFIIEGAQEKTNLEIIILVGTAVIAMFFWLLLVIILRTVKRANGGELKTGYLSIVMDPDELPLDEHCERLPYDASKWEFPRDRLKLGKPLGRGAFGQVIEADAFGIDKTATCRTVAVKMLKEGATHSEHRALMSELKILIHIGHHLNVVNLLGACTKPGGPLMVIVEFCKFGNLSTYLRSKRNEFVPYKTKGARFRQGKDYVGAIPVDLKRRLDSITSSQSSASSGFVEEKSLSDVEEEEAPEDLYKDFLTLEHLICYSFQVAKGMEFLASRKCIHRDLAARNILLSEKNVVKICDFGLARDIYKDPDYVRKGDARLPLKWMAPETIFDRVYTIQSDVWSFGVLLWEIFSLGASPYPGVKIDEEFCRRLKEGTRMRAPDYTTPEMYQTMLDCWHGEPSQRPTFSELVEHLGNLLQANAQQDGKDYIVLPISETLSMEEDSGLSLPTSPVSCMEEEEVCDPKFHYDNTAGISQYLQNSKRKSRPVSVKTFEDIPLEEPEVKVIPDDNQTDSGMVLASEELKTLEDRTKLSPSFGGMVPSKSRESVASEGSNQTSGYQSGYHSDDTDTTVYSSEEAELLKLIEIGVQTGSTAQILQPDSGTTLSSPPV
Chain of Met (P08581 25-1390): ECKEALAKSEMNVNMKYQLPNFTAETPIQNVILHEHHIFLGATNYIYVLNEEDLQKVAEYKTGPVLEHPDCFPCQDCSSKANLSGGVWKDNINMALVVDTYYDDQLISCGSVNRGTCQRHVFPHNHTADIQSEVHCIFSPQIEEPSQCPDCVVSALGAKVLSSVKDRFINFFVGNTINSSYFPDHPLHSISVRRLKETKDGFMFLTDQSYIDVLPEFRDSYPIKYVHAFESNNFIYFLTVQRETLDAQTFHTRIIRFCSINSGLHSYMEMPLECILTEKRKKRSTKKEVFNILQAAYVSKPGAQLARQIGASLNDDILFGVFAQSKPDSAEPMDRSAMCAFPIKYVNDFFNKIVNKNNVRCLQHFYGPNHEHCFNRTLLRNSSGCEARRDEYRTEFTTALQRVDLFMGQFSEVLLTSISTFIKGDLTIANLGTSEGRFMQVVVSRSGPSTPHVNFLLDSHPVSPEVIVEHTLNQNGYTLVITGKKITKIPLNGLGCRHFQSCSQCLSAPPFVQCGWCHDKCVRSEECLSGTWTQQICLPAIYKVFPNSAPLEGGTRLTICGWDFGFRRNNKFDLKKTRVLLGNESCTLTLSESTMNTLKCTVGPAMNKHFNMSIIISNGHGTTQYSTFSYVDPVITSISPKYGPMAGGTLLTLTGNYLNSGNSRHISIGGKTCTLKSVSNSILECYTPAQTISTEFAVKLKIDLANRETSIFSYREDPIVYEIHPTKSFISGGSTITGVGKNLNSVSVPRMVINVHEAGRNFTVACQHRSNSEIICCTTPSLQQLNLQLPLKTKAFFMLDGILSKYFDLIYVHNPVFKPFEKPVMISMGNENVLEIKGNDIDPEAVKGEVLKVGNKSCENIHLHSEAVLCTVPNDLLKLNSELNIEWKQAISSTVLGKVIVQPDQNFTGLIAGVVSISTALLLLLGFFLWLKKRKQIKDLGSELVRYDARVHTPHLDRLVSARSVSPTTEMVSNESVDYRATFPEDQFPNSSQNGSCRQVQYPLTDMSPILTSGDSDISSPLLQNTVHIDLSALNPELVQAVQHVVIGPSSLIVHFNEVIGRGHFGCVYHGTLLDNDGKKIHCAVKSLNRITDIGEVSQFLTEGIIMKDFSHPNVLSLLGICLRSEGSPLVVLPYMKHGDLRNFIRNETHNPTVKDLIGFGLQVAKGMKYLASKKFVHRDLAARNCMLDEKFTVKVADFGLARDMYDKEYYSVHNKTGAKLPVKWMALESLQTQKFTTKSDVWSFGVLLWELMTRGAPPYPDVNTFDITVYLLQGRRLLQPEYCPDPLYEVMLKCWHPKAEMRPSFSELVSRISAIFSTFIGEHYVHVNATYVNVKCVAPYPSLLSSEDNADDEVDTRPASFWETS
Chain of AXL (P30530 26-894): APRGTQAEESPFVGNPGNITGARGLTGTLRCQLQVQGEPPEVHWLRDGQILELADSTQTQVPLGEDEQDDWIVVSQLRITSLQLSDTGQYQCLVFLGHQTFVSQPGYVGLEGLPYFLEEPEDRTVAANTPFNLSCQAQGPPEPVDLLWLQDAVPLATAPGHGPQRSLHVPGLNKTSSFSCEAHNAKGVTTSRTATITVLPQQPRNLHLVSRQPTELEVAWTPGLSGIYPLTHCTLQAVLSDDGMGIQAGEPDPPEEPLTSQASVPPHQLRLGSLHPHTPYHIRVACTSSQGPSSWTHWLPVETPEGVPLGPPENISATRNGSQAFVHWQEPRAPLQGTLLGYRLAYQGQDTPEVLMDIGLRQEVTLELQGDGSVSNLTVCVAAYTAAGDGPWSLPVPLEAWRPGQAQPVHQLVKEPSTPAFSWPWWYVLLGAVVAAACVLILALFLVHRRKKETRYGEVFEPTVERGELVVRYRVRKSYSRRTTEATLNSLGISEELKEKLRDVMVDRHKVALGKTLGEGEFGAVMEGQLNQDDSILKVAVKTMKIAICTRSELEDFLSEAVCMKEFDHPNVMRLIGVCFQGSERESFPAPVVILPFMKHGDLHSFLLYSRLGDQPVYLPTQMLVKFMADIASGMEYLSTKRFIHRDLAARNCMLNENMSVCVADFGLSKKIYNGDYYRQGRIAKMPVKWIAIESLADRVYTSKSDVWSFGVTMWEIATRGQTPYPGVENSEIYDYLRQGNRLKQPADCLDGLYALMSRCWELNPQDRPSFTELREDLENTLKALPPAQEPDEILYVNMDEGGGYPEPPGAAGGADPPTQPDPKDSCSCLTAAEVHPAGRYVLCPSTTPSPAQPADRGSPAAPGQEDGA

IC50 [1] [nM] | IC50 [2] [nM] | IC50 [3] [nM] | SMILES
> 300 | > 300 | > 300 | COc1cc2nccc(Oc3ncc(NC(=O)C4(C(=O)Nc5ccc(F)cc5)CC4)cc3C(F)(F)F)c2nc1OC [Compound 89, 1-N′-[6-[(6,7-Dimethoxy-1,5-naphthyridin-4-yl)oxy]-5-(trifluoromethyl)pyridin-3-yl]-1-N-(4-fluorophenyl)cyclopropane-1,1-dicarboxamide]
> 300 | > 300 | > 300 | COc1cc2nccc(Oc3ccc(NC(=O)C4(C(=O)Nc5ccc(F)cc5)CC4)c(C(N)=O)n3)c2nc1OC [Compound 91, 1-N′-[2-Carbamoyl-6-[(6,7-dimethoxy-1,5-naphthyridin-4-yl)oxy]pyridin-3-yl]-1-N-(4-fluorophenyl)cyclopropane-1,1-dicarboxamide]
> 300 | > 300 | > 300 | COc1cc2nccc(Oc3ncc(NC(=O)C4(C(=O)Nc5ccc(F)cc5)CC4)cc3F)c2cc1C(=O)O [Compound 15, 4-[3-Fluoro-5-[[1-[(4-fluorophenyl)carbamoyl]cyclopropanecarbonyl]amino]pyridin-2-yl]oxy-7-methoxyquinoline-6-carboxylic acid]
> 300 | > 300 | > 300 | COCCOc1cc2ncnc(Oc3ncc(NC(=O)C4(C(=O)Nc5ccc(F)cc5)CC4)cc3F)c2nc1OC [Compound 159, 1-N′-[5-Fluoro-6-[6-methoxy-7-(2-methoxyethoxy)pyrido[3,2-d]pyrimidin-4-yl]oxypyridin-3-yl]-1-N-(4-fluorophenyl)cyclopropane-1,1-dicarboxamide]
> 300 | > 300 | > 300 | COCCOc1nc2c(Oc3ncc(NC(=O)C4(C(=O)Nc5ccc(F)cc5)CC4)cc3F)ccnc2cc1OC [Compound 134, 1-N′-[5-Fluoro-6-[[7-methoxy-6-(2-methoxyethoxy)-1,5-naphthyridin-4-yl]oxy]pyridin-3-yl]-1-N-(4-fluorophenyl)cyclopropane-1,1-dicarboxamide]
> 300 | > 300 | > 300 | O=C(Nc1ccc(F)cc1)C1(C(=O)Nc2cnc(Oc3ccnc4cc5c(nc34)OCCO5)c(F)c2)CC1 [Compound 105, 1-N′-[6-(2,3-Dihydro-[1,4]dioxino[2,3-b][1,5]naphthyridin-6-yloxy)-5-fluoropyridin-3-yl]-1-N-(4-fluorophenyl)cyclopropane-1,1-dicarboxamide]
> 300 | > 300 | > 300 | COc1cc2nccc(Oc3cc(C)c(NC(=O)C4(C(=O)Nc5ccc(F)cc5)CC4)cn3)c2nc1OC [Compound 83, 1-N′-[6-[(6,7-Dimethoxy-1,5-naphthyridin-4-yl)oxy]-4-methylpyridin-3-yl]-1-N-(4-fluorophenyl)cyclopropane-1,1-dicarboxamide]
> 300 | > 300 | > 300 | COc1cc2nccc(Oc3nc(C)c(NC(=O)C4(C(=O)Nc5ccc(F)cc5)CC4)cc3Br)c2nc1OC [Compound 90, 1-N′-[5-Bromo-6-[(6,7-dimethoxy-1,5-naphthyridin-4-yl)oxy]-2-methylpyridin-3-yl]-1-N-(4-fluorophenyl)cyclopropane-1,1-dicarboxamide]
